Measured values published in PMC6631119, “Nasal Administration and Plasma Pharmacokinetics of Parathyroid Hormone Peptide PTH 1-34 for the Treatment of Osteoporosis” (Pharmaceutics, 2019).
Like-named read-outs stand apart in the source and are kept apart here.

Legend:
[1] = human volunteers, nasal powder formulations with Solutol HS15 compared to subcutaneous injection of hGH; cited from earlier work
From the text: With the aim of improving upon the pharmacokinetics of the liquid nasal spray in humans, our continued research evaluated a bioadhesive powder formulation within a large animal (ovine) model. This is a model known to be highly representative of intranasal drug delivery that closely replicates the clinical findings. […] Likewise, we have published o ...

[2] = conscious rats, nasal liquid formulation with Solutol HS15 (10%), first 2 h after administration; cited from earlier work
[3] = Healthy human volunteer plasma pharmacokinetics of PTH 1-34 (open cross-over, ELISA); assay type: in vivo; details: human
Protocol: An open cross-over clinical IMP (investigative medicinal product) study was conducted in seven healthy female subjects aged over 55 years (mean age 67.7, range 58 to 81 years). Each participant provided informed consent in accordance with ethical committee requirements and good clinical practice. Pre-study screening assessments were carried out within 21 days of the participants receiving their first dose (Supplementary Materials: Section S1). Inclusion and exclusion criteria were applied (Supplementary Materials: Section S2). Participants were admitted to the study centre on the morning of dosing, having abstained from alcohol and smoking for at least 24 h previously and fasted from midnight. Participants were given a light meal on arrival. A cannula was then positioned in the participant’s arm or hand to facilitate the collection of blood samples. The pre-dose sample was taken. Participants received a single subcutaneous injection of 20 μg teriparatide into the abdomen at their first trial visit. Following a seven day wash out period, each participant self-administered 90 μg PTH 1-34 from the nasal spray formulation using the Rexam SP270 nasal spray device; the patients had previously been trained in operation of the Rexam device. Any episodes of sneezing after administration of the nasal formulation were recorded. The nasal spray formulation contained Tc-99m-DTPA, 3–5 MBq per Rexam SP270 nasal spray dose, resulting in an effective radiation dose of less than 0.14 mSv to each participant.
Following either subcutaneous or intranasal dosing, 10 mL blood samples (Becton Dickinson sodium heparin) were taken at 5, 15, 30, 60 120, 180, 240, 300 and 360 min. After each sample was taken, the cannula was flushed with 10 mL 0.9% saline. Blood was stored on ice and centrifuged within 30 min to prepare plasma (4 °C, 1100–1300 g, 10 min). These samples were stored at −20 °C before dispatching to Simbec Research Ltd. (Merthyr Tydfil, UK) for quantification by validated ELISA, in compliance with The UK Good Laboratory Practice Regulations 1999 (Statutory Instrument No. 310 6) and subsequent amendment, OECD Principles of Good Laboratory Practice (Paris 1998) and EC Commission Directive 2004/10/EC of February 2004.
Pharmacokinetic data were analysed using Phoenix® WinNonlin® 5.1 (Certara USA, Inc., Princeton, NJ, USA) from quantified PTH 1-34 in the plasma, using recorded sampling times. Summary statistics (mean, median, SD, coefficient of variation [CV%], minimum, maximum, n) and the following plasma pharmacokinetic parameters were calculated: • Cmax • Tmax • Terminal half-life (t1/2) • AUC to 2 h (AUC0–2h) • AUC to last measured time point (AUClast) and corresponding Frel for nasal formulation

[4] = cited from earlier work
[5] = human, subcutaneous injection, estimated

Compound	relative bioavailability [1]	relative bioavailability [2] [%]	Tmax ([3]; female, plasma, sc, 20 ug, healthy female volunteers aged over 55 y, single 20 μg teriparatide subcutaneous injection into abdomen (Forsteo pen), plasma ELISA, mean of n = 7) [min]	AUC(0-t) ([3]; female, plasma, sc, 20 ug, healthy female volunteers aged over 55 y, single 20 μg teriparatide subcutaneous injection into abdomen (Forsteo pen), plasma ELISA, mean of n = 7, read-out: AUC0–2h (converted)) [ng·h/mL]	AUC(0-t) ([3]; female, plasma, sc, 20 ug, healthy female volunteers aged over 55 y, single 20 μg teriparatide subcutaneous injection into abdomen (Forsteo pen), plasma ELISA, mean of n = 7, read-out: AUC0–last (converted)) [ng·h/mL]	Cmax ([3]; female, plasma, sc, 20 ug, healthy female volunteers aged over 55 y, single 20 μg teriparatide subcutaneous injection into abdomen (Forsteo pen), plasma ELISA, mean of n = 7, read-out: Cmax) [ng/mL]	time by which teriparatide concentrations returned to zero ([3]; 20 μg teriparatide subcutaneous injection) [h]	elimination t1/2 ([3]; 20 μg teriparatide subcutaneous injection, mean)	half-life ([3]; sc, 20 ug, healthy female volunteers aged over 55 y, single 20 μg teriparatide subcutaneous injection into abdomen (Forsteo pen), plasma ELISA, mean of n = 7, read-out: t½) [min]	absolute bioavailability of subcutaneous injection ([4]; human subjects, subcutaneous injection into the abdominal wall, intravenous injection 100%)	prolongation in the time to reach peak concentration (Tmax), thigh as opposed to abdomen [4, 5] [min]	reduction in maximum plasma teriparatide concentrations (Cmax), thigh as opposed to abdomen [4, 5] [%]	slower rate of absorption, injection into the thigh as opposed to the abdomen [4, 5] [%]
hGH: human growth hormone (MW 22kDa), given nasally with Solutol HS15 in earlier studies	about 3%	49											
CC[C@H](C)[C@H](NC(=O)[C@H](CCC(=O)O)NC(=O)[C@H](CO)NC(=O)[C@@H](NC(=O)[C@@H](N)CO)C(C)C)C(=O)N[C@@H](CCC(N)=O)C(=O)N[C@@H](CC(C)C)C(=O)N[C@@H](CCSC)C(=O)N[C@@H](Cc1cnc[nH]1)C(=O)N[C@@H](CC(N)=O)C(=O)N[C@@H](CC(C)C)C(=O)NCC(=O)N[C@@H](CCCCN)C(=O)N[C@@H](Cc1cnc[nH]1)C(=O)N[C@@H](CC(C)C)C(=O)N[C@@H](CC(N)=O)C(=O)N[C@@H](CO)C(=O)N[C@@H](CCSC)C(=O)N[C@@H](CCC(=O)O)C(=O)N[C@@H](CCCN=C(N)N)C(=O)N[C@H](C(=O)N[C@@H](CCC(=O)O)C(=O)N[C@@H](Cc1c[nH]c2ccccc12)C(=O)N[C@@H](CC(C)C)C(=O)N[C@@H](CCCN=C(N)N)C(=O)N[C@@H](CCCCN)C(=O)N[C@@H](CCCCN)C(=O)N[C@@H](CC(C)C)C(=O)N[C@@H](CCC(N)=O)C(=O)N[C@@H](CC(=O)O)C(=O)N[C@H](C(=O)N[C@@H](Cc1cnc[nH]1)C(=O)N[C@@H](CC(N)=O)C(=O)N[C@@H](Cc1ccccc1)C(=O)O)C(C)C)C(C)C [teriparatide]			21.4	0.29	0.345	0.253	≤ 6	approximately 1 h	64.8	up to 95%	1.5	18	21
